Measured values taken from US20230172961A1 (priority 2020, published 2023).

Target: SARS-CoV-2 exonuclease complex (nsp14 and nsp10) (Severe acute respiratory syndrome coronavirus 2, UniProt P0DTD1)
Experiment: Exonuclease resistance of RNA terminated with nucleotide analogues, MALDI-TOF MS
Type: biochemical
Conditions: for relative resistance to excision by the exonuclease: analogue at the 3′ terminus of RNA, compared with other 3′ termini; for cleavage of extended RNA after 5 min exonuclease treatment / cleavage of extended RNA after 30 min exonuclease treatment: RNA extended by SARS-CoV-2 RdRp (FIGS. 48, 49)

| Substance | relative resistance to excision by the exonuclease | relative resistance to excision by the exonuclease (listed as 2′-O-Me-CTP) | cleavage of extended RNA after 5 min exonuclease treatment | cleavage of extended RNA after 5 min exonuclease treatment (listed as SFV) | cleavage of extended RNA after 30 min exonuclease treatment | cleavage of extended RNA after 30 min exonuclease treatment (listed as SFV) |
| --- | --- | --- | --- | --- | --- | --- |
| 2′-O-methyl CMP | resistant to excision | much more full-length RNA remaining |  |  |  |  |
| Sofosbuvir | more protected from cleavage |  | minimal appearance of cleavage products | some reduction in the height | significant amount of the intact Sofosbuvir-RNA remaining | still some SFV extended RNA remaining |
| UMP |  |  | substantial cleavage |  | completely disappears |  |
